Reference: article PMC9370394, “New Monocyclic Terpenoid Lactones from a Brown Algae Sargassum macrocarpum as Monoamine Oxidase Inhibitors” (Plants, 2022)

Target: T1, human monoamine oxidase A (hMAO-A) (Homo sapiens, UniProt P21397)
T1 construct: gene MAOA
T1 sequence (P21397 1-527): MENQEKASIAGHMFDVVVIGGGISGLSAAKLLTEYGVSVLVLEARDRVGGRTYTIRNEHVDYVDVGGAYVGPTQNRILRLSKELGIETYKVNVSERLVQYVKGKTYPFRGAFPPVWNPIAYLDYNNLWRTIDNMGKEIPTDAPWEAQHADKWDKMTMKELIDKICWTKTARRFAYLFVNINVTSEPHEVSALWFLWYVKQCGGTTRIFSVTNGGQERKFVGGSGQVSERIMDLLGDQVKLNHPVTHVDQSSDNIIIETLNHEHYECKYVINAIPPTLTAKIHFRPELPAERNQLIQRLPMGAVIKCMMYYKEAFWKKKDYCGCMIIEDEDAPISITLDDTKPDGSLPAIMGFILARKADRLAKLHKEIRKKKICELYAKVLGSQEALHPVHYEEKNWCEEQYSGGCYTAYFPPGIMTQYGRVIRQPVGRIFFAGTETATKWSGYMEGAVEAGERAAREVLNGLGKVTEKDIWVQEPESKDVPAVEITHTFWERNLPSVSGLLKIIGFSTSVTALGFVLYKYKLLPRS
Experiment: MAO-Glo luminescence enzyme assay, single concentration of […]
Assay type: biochemical

inhibition at 200 µM: 42.2 ± 2.68%
Structure (SMILES): CC(=O)CC/C=C1/CC[C@H](C(C)(C)O)OC1=O [compound 1, 6R-(2-hydroxypropan-2-yl)-3Z-(4-oxopentylidene)tetrahydro-2H-pyran-2-one]
